Experimental data reported in US8546137B2, “Inhibition of dendritic cell-driven regulatory T cell activation and potentiation of tumor antigen-specific T cell responses by interleukin-15 and MAP kinase inhibitor” (The Board of Trustees of the University of Arkansas, priority 2007, dated 2013).

Experiments:
[1] = test system: hepsin 48-84 peptide-specific CD4+ T cells; assay: TNFα expression by CD4+ T cells stimulated with treated DC; assay type: cell-based, human; conditions: DC treated throughout culture; IL-15 100 ng/ml, inhibitor 10 μM; relative to standard DC; T cells maintained with IL-2
Method: (§1) Foxp3 expression was determined according to the manufacturer's staining protocol (eBioscience), using the provided fixation and permeabilization buffers. Intracellular cytokine expression was measured by flow cytometry after overnight co-culture of T cells with peptide-pulsed or control autologous LCL. T cells (1.5×10^6) were plated in 12 well Costar plates in 2 ml RPMI/10Hu. T cells were stimulated with phorbol myristyl acetate (50 ng/ml) and ionomycin (500 ng/ml) as a positive control. At the onset of co-culture, 10 μg/ml of Brefeldin A was added to block cytokine release. Cells were collected after overnight stimulation and fixed in 2% paraformaldehyde in PBS for 10 minutes at room temperature. The cells were washed once in PBS and again in 0.5% saponin and 1% BSA in PBS. T cells were labeled with cytokine-specific PE or FITC-conjugated mAb for 30 minutes at room temperature. After staining, the cells were washed twice in 0.5% saponin and 1% BSA in PBS, once with 0.5% BSA in PBS, and fixed in 2% paraformaldehyde in PBS. Samples were analyzed with a FACSCalibur (Becton-Dickinson) and Cellquest or WinMDI software.
Treatment of DC with IL-15 and a p38 MAP kinase inhibitor enhances CD4^+ helper T cell TNFα expression in response to tumor antigen stimulation, and diminishes Treg foxp3 expression. […]

[2] = test system: tumor antigen-specific CD4+ T cells; assay: CCR4 and CXCR4 expression by CD4+ T cells stimulated with treated DC; assay type: cell-based, human; conditions: treatment of DC
Method: (§2) Treatment of DC with IL-15 and a p38 MAP kinase inhibitor enhances CD4^+ helper T cell TNFα expression in response to tumor antigen stimulation, and diminishes Treg foxp3 expression. DC were treated with IL-15 (100 ng/ml) and/or a p38 MAP kinase inhibitor (10 μM p38 MAP kinase inhibitor III, from Calbiochem, La Jolla, Calif.) throughout their culture (i.e., from day 0 through completion of DC maturation on day 7). DC were loaded with the hepsin 48-84 peptide antigen on day 5 (i.e., at the time of addition of maturation cytokines).

[3] = test system: tumor antigen-specific CD4+ T cells; assay: PD-1 expression by CD4+ T cells stimulated with treated DC; assay type: cell-based, human; conditions: treatment of DC
Method: as §2

[4] = test system: matriptase 170-204 peptide-specific, DC-activated CD4+ T cells; assay: Foxp3 and GITR expression by flow cytometry, CD4+ T cells; assay type: cell-based, human
Method: (§3) Peripheral blood was drawn from healthy adult volunteer donors, following an IRB-approved protocol. PBMC were recovered by gradient centrifugation (Lymphoprep; Greiner Bio-One, Longwood, Fla.). For preparation of DC, PBMC were placed in 6 well plates (Costar, Cambridge, Mass.) at a concentration of 5×10^6/well in AIM-V medium. After incubation for 2-3 hours at 37° C., non-adherent cells were removed and the medium was replaced with AIM-V plus 800 U/ml GM-CSF and 500 U/ml IL-4. On days 3 and 5, half the medium was removed and replaced with AIM-V plus 800 U/ml GM-CSF and 500 U/ml IL-4. Maturation cytokines (1 μM/ml PGE2, 1000 U/ml TNFα, and 500 U/ml IL-1β) were added on day 5. Where indicated, IL-15 (100 ng/ml) was present throughout DC culture (i.e., from day 0, and supplemented on days 3 and 5). For stimulation of peptide-specific CD4^+ helper T cell and CD8^+ CTL responses, DC were loaded with 50 μg/ml of peptide on day 5 (at the time of addition of maturation cytokines) and the DC were harvested 2 days later. The DC were then washed once with AIM-V medium and used for T cell stimulation at a PBMC:DC ratio of 30:1. After 7 days, T cells were collected and restimulated with peptide-loaded DC. After the second stimulation, CD4^+ or CD8^+ T cells were recovered by positive selection with anti-CD4 or anti-CD8 magnetic beads (Dynabeads, Invitrogen), respectively, yielding populations of at least 95% purity. During the second and subsequent T cell passages (up to a maximum of six restimulations with peptide-loaded DC, at T cell:DC ratios of between 30:1 and 10:1), 20-100 U/ml IL-2 was added to the medium, and the cultures were periodically fed (every 2-3 days) by changing 50-70% of the medium and addition of fresh IL-2. Where indicated, T cell cultures were supplemented with 100 ng/ml IL-15, starting with the second passage.
as §1, with “T cells were labeled with cytokine-specific PE or FITC-conjugated mAb for 30 minutes at room temperature. After staining, the cells were washed twice in 0.5% saponin and 1% BSA in PBS, once with 0.5% BSA in PBS, and fixed in 2% paraformaldehyde in PBS.” left out

[5] = test system: peptide-loaded autologous LCL; assay: 51Cr-release cytotoxicity assay, CD8+ T cells against peptide-loaded autologous LCL; assay type: cell-based, human
Method: as §3, with “After the second stimulation, CD4^+ or CD8^+ T cells were recovered by positive selection with anti-CD4 or anti-CD8 magnetic beads (Dynabeads, Invitrogen), respectively, yielding populations of at least 95% purity. During the second and subsequent T cell passages (up to a maximum of six restimulations with peptide-loaded DC, at T cell:DC ratios of between 30:1 and 10:1), 20-100 U/ml IL-2 was added to the medium, and the cultures were periodically fed (every 2-3 days) by changing 50-70% of the medium and addition of fresh IL-2. Where indicated, T cell cultures were supplemented with 100 ng/ml IL-15, starting with the second passage.” left out
(§4) Standard ^51Cr-release assays were performed as described (24). […] The percentage of target cell lysis was calculated as described (24).

[6] = test system: matriptase 170-204 peptide-specific CD4+ T cells; assay: Treg assay: coculture of peptide-specific CD4+ T cells with autologous alloreactive CD4+ T cells (MLR, 3H-TdR); assay type: cell-based, human
Method: as §3
DC-activated, peptide-specific T cells were tested for Treg activity in 3 day microwell cocultures with autologous alloreactive CD4^+ T cells at a 1:1 ratio. The alloreactive CD4^+ T cells were stimulated with irradiated (7,500 cGy) allogeneic LCL at a 2:1 ratio. Transwell cocultures were conducted in 12-well Costar plates with 0.4 μm polycarbonate membrane inserts, at the same cell ratios as conventional microwell cocultures. Peptide-specific T cells were placed in the upper chamber, and alloreactive CD4^+ T cells plus irradiated allogeneic LCL were placed in the lower chamber. For all assays, proliferation of alloreactive CD4^+ T cells was determined by addition of 1 μCi/well ^3H-TdR for the last 16 hours of incubation. No exogenous cytokines were added to Treg coculture assays. Controls were included to correct for background proliferation of individual cell populations or spontaneous alloreactivity of peptide-specific T cells.

[7] = test system: matriptase 170-204 peptide-specific CD4+ T cells; assay: Intracellular Th1 cytokine (TNFα, IFNγ) expression after challenge with peptide-loaded autologous LCL; assay type: cell-based, human
Method: (§5) Peripheral blood was drawn from healthy adult volunteer donors, following an IRB-approved protocol. PBMC were recovered by gradient centrifugation (Lymphoprep; Greiner Bio-One, Longwood, Fla.). For preparation of DC, PBMC were placed in 6 well plates (Costar, Cambridge, Mass.) at a concentration of 5×10^6/well in AIM-V medium. After incubation for 2-3 hours at 37° C., non-adherent cells were removed and the medium was replaced with AIM-V plus 800 U/ml GM-CSF and 500 U/ml IL-4. On days 3 and 5, half the medium was removed and replaced with AIM-V plus 800 U/ml GM-CSF and 500 U/ml IL-4. Maturation cytokines (1 μM/ml PGE2, 1000 U/ml TNFα, and 500 U/ml IL-1β) were added on day 5. Where indicated, IL-15 (100 ng/ml) was present throughout DC culture (i.e., from day 0, and supplemented on days 3 and 5). […]
(§6) Foxp3 expression was determined according to the manufacturer's staining protocol (eBioscience), using the provided fixation and permeabilization buffers. Intracellular cytokine expression was measured by flow cytometry after overnight co-culture of T cells with peptide-pulsed or control autologous LCL. […] Samples were analyzed with a FACSCalibur (Becton-Dickinson) and Cellquest or WinMDI software.

[8] = test system: peptide-loaded autologous LCL; assay: 51Cr-release cytotoxicity assay, CD4+ T cells against peptide-loaded autologous LCL; assay type: cell-based, human
Method: as §3, with “After the second stimulation, CD4^+ or CD8^+ T cells were recovered by positive selection with anti-CD4 or anti-CD8 magnetic beads (Dynabeads, Invitrogen), respectively, yielding populations of at least 95% purity. During the second and subsequent T cell passages (up to a maximum of six restimulations with peptide-loaded DC, at T cell:DC ratios of between 30:1 and 10:1), 20-100 U/ml IL-2 was added to the medium, and the cultures were periodically fed (every 2-3 days) by changing 50-70% of the medium and addition of fresh IL-2. Where indicated, T cell cultures were supplemented with 100 ng/ml IL-15, starting with the second passage.” left out
as §4

[9] = test system: matriptase 170-204 peptide-specific, DC-activated CD8+ T cells; assay: Foxp3 and GITR expression by flow cytometry, CD8+ T cells; assay type: cell-based, human
Method: as §3, with “During the second and subsequent T cell passages (up to a maximum of six restimulations with peptide-loaded DC, at T cell:DC ratios of between 30:1 and 10:1), 20-100 U/ml IL-2 was added to the medium, and the cultures were periodically fed (every 2-3 days) by changing 50-70% of the medium and addition of fresh IL-2. Where indicated, T cell cultures were supplemented with 100 ng/ml IL-15, starting with the second passage.” left out
as §6

[10] = test system: matriptase 170-204 peptide-specific CD8+ T cells; assay: Treg assay: coculture of peptide-specific CD8+ T cells with autologous alloreactive CD4+ T cells (MLR, 3H-TdR); assay type: cell-based, human
Method: as §5, with “5). For stimulation of peptide-specific CD4^+ helper T cell and CD8^+ CTL responses, DC were loaded with 50 μg/ml of peptide on day 5 (at the time of addition of maturation cytokines) and the DC were harvested 2 days later.” for “5).”
DC-activated, peptide-specific T cells were tested for Treg activity in 3 day microwell cocultures with autologous alloreactive CD4^+ T cells at a 1:1 ratio. […] For all assays, proliferation of alloreactive CD4^+ T cells was determined by addition of 1 μCi/well ^3H-TdR for the last 16 hours of incubation. […]

[11] = test system: CD25 preferentially expressed by CD4+ Treg; conditions: patients with renal cell carcinoma, combined with tumor RNA-transfected DC vaccination; cited from earlier work
[12] = IL-15 added to CD4+ T cell cultures activated with conventional DC
[13] = conventional DC or IL-15-treated DC, T cells maintained with IL-2 plus IL-15

p38 MAP kinase inhibitor III [reference compound]
CD4+ T cell TNFα expression upon tumor antigen stimulation [1]: did not significantly increase
CD4+ T cell expression of CCR4 [2]: markedly enhanced
CD4+ T cell expression of CXCR4 [2]: inhibited
PD-1 expression by tumor antigen-specific CD4+ helper T cells [3]: markedly reduces

IL-15: interleukin-15, cytokine from R & D Systems, used at 100 ng/ml in DC and/or T cell culture
Foxp3 expression by CD4+ T cells [4, 12]: did not result in a significant change
frequency of GITR+ CD4+ T cells (total) [4, 12]: 8%
Foxp3 expression, proportion of CD4+ T cells ([4]; activated with IL-15-treated DC (100 ng/ml), maintained with IL-2, conventionally activated cells 33%): 20%
frequency of Foxp3+ and GITR+ CD4+ T cells ([4]; activated with IL-15 treated DC and maintained with IL-2 plus IL-15): markedly enhanced
CD4+ T cell TNFα expression upon tumor antigen stimulation [1]: did not significantly increase
CD4+ T cell expression of CCR4 [2]: slightly inhibited
CD4+ T cell expression of CXCR4 [2]: enhances
PD-1 expression by tumor antigen-specific CD4+ helper T cells [3]: markedly reduces
gain in lysis, CD8+ T cell cytotoxicity ([5]; IL-15 treatment of DC or CD8+ T cells): lower than observed for CD4^+ T cell responses
CD8+ T cell cytotoxicity against peptide-loaded LCL ([5]; combined treatment of both DC and CD8+ T cells with IL-15): strong synergistic increase
restoration of the mixed lymphocyte reaction (CD4+ Treg activity) ([6]; IL-15-treated DC, or IL-15 treatment of CD4+ T cells activated with conventional DC): significant restoration
inhibition of the mixed lymphocyte reaction by peptide-specific CD4+ T cells (Treg activity) ([6]; T cells cultured with IL-15, or activated by DC cultured with IL-15, or both (bars B, C, D), conventional about 90%): less than 60%
restoration of the mixed lymphocyte reaction (CD4+ Treg activity) ([6]; both DC and CD4+ T cells treated with IL-15): further enhancement of alloreactivity
restoration of the mixed lymphocyte reaction (CD4+ Treg activity) ([6]; peptide-specific CD4+ T cells irradiated before coculture, IL-15 on DC, T cells or both): almost total restoration of the MLR
antigen-driven cytokine responses (TNFα, IFNγ) of CD4+ T cells ([7]; combined IL-15 treatment of both DC and CD4+ T cells): synergistic gain
frequency of CD4+ T cells expressing TNFα and IFNγ ([7]; treatment of DC with IL-15 or treatment of CD4+ T cells with IL-15): small increment
CD4+ T cell lysis of peptide-loaded LCL ([8]; IL-15-treated DC followed by culture with IL-2 plus IL-15, additive): further gain in lysis
CD4+ T cell cytotoxicity ([8]; IL-15 treatment of DC or CD4+ T cells): marked enhancement
Foxp3 expression, proportion of CD8+ T cells ([9]; activated with IL-15-treated DC, maintained with IL-2): 37%
GITR expression by CD8+ T cells [9, 13]: did not show increased GITR expression
frequency of Foxp3+ CD8+ T cells [9, 13]: elevated frequencies
CD8+ Treg activity ([10]; IL-15 treatment of DC alone): particularly effective in diminishing
CD8+ regulatory function ([10]; IL-15 treatment of DC, of CD8+ T cells, or both): markedly diminished

denileukin diftitox
Treg in the peripheral blood [11]: reduced numbers of Treg
generation of tumor-specific T cell responses [11]: enhanced generation of tumor-specific T cell responses
